Reference: patent US6960594B2, “Thiophene and furan 2,5-dicarboxamides useful in the treatment of cancer” (Shire BioChem Inc., priority 1998, dated 2005)
Counter-ions that a name gives are not always drawn. Like-named read-outs stand apart in the source and are kept apart here.

Columns and labels:
[1] = system: Human non small-cell lung cancer cell line H460; test: Inhibition of metastasis in angiomouse/metamouse human lung cancer model of H460; assay type: in vivo, athymic BALB/c nude mice; conditions: Group B, 10 mg/kg SC 3 times/week
Method: Male and female athymic BALB/c nude mice between 4 and 5 weeks of age were used. The animals were bred and maintained in an HEPA-filtered environment with cages, food and bedding sterilized by autoclaving. The breeding pairs were obtained from the Charles River Laboratories (Wilmington, Mass.). The animal diets were obtained from Harlan Teklab (Madison, Wis.). Ampicillin (Sigma, St Louis, Mo.) 5.0% (v/v) was added to the autoclaved drinking water.
Compound VII was tested and AGM-1470 (chloroacetyl-(3R,4S,5S,6R)-5-methoxy-4-[(2R,3R)-2-methyl-3-(3-methyl-2-butenyl)oxiranyl]-1-oxaspiro[2.5]oct-6-yl ester carbamic acid) was used as a positive control. [drawing 51] The compounds were dissolved using PEG400 with heating and sonicatin. The solutions were then diluted with saline to obtain the desired concentrations (30%/70%) and stored at −20° C.
Human non small-cell lung cancer cell line H460 with expression of green fluorescent protein was obtained from the National Cancer Institute. The cells were transfected with vectors carrying the green fluorescent protein (GFP) gene. The cell line was propagated by subcutaneous implantation in nude mice.
Test animals were transplanted by surgical orthotopic implantation (SOI) using fragments harvested from subcutaneaous tumor stock animals. The animals were anesthetized with isoflurane and the surgical area was sterilized using iodine solution and alcohol. A left thoracotomy was made along the 4th intercostal space using a pair of scissors. Two pieces of H460 tumor tissue of one cubic millimiter each were sutured to the left lung using an 8-0 nylon surgical suture. The thorax was closed using a sterile 6-0 silk suture. A sterile 3-cc syringe with a 25-gauge needle was used to remove the air and inflate the lung. All surgical and animal manipulations and procedures were conducted under HEPA-filtered laminar flow hoods.
Extra numbers of mice were transplanted to compensate for postsurgical losses. The orthotopically transplanted animals used were selected to establish groups of similar mean body weight. Groups for each of the cohort conditions wre randomly chosen. The cohort was grouped as follows. A total of 10 mice were used for each dosage regimen. Administration of test compounds and vehicle by subcutaneous injection was begun three days after the orthotopic implantation.
Two animals for each treatment group were sacrificed at day-14 after orthotopic implantation of H460. The remaining animals for each group were sacrificed at day-28 after implantation. The sacrificed animals were evaluated for primary and secondary tumors. Gross examination for distant metastasis was conducted at necropsy. Tissue samples of the primary tumor and those from relevant organs such as the lung, the liver and the lymph nodes wre processed through standards procedures of hematoxylin and eosin staining for subsequent microscopic examination.
The mediastinal lymph nodes, the liver and the lung in each animal were collected. The sampled tissues were sectioned and stained, then microscopically examined. The fisher-exact test was performed to compare distant metastasis to these organs in the treated and the controls. […]

[2] = system: Chick chorioallantoic membrane (CAM) capillary formation driven by VPF/VEGF165; test: Chick chorioallantoic membrane (CAM) mesh assay; assay type: in vivo, chicken; conditions: significant if >25%
Method: Fertilized white leghorn chicken eggs (SPAFAS Inc., Norwich, Conn.) were received at day 0 and incubated for 3 days at 37 C with constant humidity. On day 3, eggs were rinsed with 70% ethanol and opened into 100 mm^2 tissue culture coated Petri dishes under aseptic conditions. The embryos were then returned to a humidified 38 C incubator for 7-9 additional days.
Vitrogen (Collagen Biomaterials, Palo Alto, Calif.) at a final concentration of 0.73 mg/mL and Matrigel (Becton Dickinson, Bedford, Mass.) at a final concentration of 10 mg/mL was directly pipetted onto Nylon meshes with 250 μm^2 openings which were cut into 4 mm×4 mm squares and autoclaved. Polymerization of meshes were under aseptic conditions, on bacteriological Petri dishes. The polymerization conditions for each substrate were identical; after mixing with or without 250 μg of VPF/VEGF165 (Peprotech, Rocky Hill, N.J.) and/or compounds of interest, 40 μL were pipetted onto each mesh in a bacteriological Petri dish. The Petri dish was placed in a humidified 37 C incubator with 5% CO2 for 30 minutes to allow polymerization followed by an incubation at 4° C. for 2 hours.
In a tissue culture enclosure, meshes were placed onto the periphery of the CAM of a day 12-14 embryo, excluding areas containing major vessels. The embryos were then returned to the humidified 38° C. incubator with 3% CO2 for 24 to 48 additional hours.
Embryos were removed from the incubator and meshes were viewed under a dissecting microscope for gross evaluation. Injection of 400 μL FITC dextran, MW 2,000,000 (Sigma, St. Louis, Mo.) through glass microcapillary tubes by infusion into the umbilical vein was performed at a rate of 200 μl per minute. The FITC dextran was allowed to circulate for 5 minutes and 3.7% formaldehyde in PBS was applied directly on each mesh. The embryos were then incubated at 40° C. for 5 minutes and the meshes were dissected off the CAM and fixed in 3.7% formaldehyde for 10 minutes to overnight.
After fixation, meshes were mounted on slides with 90% glycerol in PBS and visualized on an inverted fluorescence microscope. A Nikon Diaphot with a Sony DXC-151A camera attached to the side port was used for capture of images and analysis was with the NIH Image 1.61 software program. For each mesh, 5 random staggered images (approximately 600 μm each) were captured. The areas of high intensity were highlighted and measured. Results are expressed as ability to suppress capillary formation after subtraction from negative control. Values were calculated as a inhibition, considering 100% the capillary density achieved by VPF in the presence of vitrogen alone minus the bakground levels in the absence of VPF. Negative values indicated angiogenic stimulation above the VPF positive control.

HMVEC = test: Cell proliferation and cytotoxicity MTT assay, HMVEC; assay type: cell-based; conditions: HMVEC, 72 hours culture
Method: (§1) The wells of microtiter plates were seeded with 2000 cells/well T24, 2500 cells/well HT29 or 5000 cells/well HMVEC (Cell Systems) in 100 uL, followed by an overnight culture for cell adhesion. The next day, the media is supplemented with 100 uL of 10-fold dilution of compound of interest starting at 10 uM. Following culture for 72 hours, 3-(4,5-dimethyl-2-thiazolyl)-2,5-diphenyltetrazolium bromide (MTT; Sigma) at 2 mg/mL was added to each well (50 uL/well) and further incubated for 4 hours at 37° C. The medium was flicked out and 200 uL of a 1:1 solution of ethanol:acetone followed by 25 uL of glycine buffer (0.1 M glycine, 0.1M NaCl, pH 10.5) is added and the color measured by the absorbance at 570 nm.

placental αvβ3 = molecular target: T1, placental αvβ3 (Homo sapiens, UniProt P05106+P06756); test: Fibrinogen binding to immobilized αvβ3
T1 construct: placental αvβ3 at 0.5 ug/mL; from tissue; host or cells: placenta
T1 sequence (P06756 31-889 limits assumed): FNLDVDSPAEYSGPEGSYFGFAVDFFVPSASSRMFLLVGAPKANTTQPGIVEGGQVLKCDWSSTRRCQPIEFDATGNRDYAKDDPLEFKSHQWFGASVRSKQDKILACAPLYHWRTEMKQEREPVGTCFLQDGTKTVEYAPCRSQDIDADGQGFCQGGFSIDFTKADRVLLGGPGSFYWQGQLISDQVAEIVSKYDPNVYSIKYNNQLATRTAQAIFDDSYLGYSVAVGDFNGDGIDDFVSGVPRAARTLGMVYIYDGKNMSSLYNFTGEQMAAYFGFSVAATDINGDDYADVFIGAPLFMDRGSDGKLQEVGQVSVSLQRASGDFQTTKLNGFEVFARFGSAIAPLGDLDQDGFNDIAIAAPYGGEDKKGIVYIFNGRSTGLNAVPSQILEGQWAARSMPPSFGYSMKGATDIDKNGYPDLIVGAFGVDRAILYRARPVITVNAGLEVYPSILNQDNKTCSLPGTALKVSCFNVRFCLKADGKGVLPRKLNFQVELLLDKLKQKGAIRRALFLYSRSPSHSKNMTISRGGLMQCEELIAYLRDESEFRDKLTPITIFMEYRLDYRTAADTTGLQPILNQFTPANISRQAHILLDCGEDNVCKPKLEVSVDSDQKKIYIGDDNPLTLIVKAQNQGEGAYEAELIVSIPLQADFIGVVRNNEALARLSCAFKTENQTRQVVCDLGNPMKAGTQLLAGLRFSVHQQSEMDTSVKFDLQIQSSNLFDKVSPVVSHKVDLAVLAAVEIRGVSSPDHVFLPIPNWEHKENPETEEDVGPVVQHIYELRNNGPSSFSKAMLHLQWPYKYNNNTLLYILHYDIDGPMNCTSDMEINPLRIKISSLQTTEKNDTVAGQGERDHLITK
T1 sequence (P06756 891-1048 partner limits assumed): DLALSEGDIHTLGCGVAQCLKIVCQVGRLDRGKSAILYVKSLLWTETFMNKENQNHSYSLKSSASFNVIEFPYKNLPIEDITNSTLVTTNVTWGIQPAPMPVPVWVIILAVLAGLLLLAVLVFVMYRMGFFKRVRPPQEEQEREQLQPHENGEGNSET
T1 sequence (P05106 27-788): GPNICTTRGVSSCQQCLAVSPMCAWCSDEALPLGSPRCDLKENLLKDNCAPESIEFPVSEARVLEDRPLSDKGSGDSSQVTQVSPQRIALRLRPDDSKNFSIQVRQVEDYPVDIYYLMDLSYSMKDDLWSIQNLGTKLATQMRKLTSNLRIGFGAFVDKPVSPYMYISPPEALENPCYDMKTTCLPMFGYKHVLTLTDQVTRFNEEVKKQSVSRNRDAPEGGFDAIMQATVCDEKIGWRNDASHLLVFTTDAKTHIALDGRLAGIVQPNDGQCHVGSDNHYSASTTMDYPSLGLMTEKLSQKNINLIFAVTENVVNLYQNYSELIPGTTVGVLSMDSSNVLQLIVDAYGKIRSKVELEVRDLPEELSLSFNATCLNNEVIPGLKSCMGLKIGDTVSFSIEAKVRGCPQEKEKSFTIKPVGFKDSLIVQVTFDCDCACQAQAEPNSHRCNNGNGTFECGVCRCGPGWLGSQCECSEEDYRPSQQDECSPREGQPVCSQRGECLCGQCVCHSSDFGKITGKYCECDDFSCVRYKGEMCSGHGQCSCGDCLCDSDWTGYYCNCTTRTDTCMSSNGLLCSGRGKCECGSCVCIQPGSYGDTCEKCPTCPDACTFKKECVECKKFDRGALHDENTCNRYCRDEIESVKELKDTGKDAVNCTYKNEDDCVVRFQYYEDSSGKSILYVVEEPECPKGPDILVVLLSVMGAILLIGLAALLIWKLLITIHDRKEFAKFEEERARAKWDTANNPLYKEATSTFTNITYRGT
Method: (§2) The wells of plastic microtiter plates were coated overnight at 4° C. with purified active αIIbβ3 (Calbiochem) or placental αvβ3 at 0.5 ug/mL (100 uL/well) in a buffer containing 150 mM NaCl, 20 mM Tris, pH 7.4, 1 mM MgCl2, 0.2 mM MnCl2, and including 1 mM CaCl2 for αIIbβ3. Blocking of nonspecific sites was achieved by incubating the wells with 35 mg/mL bovine serum albumin (BSA) for at least 2 hours at 37° C. Biotinylated-fibrinogen (10 nM) was added in 0.2 mL binding buffer (100 mM NaCl, 50 mM Tris, pH 7.4, 1 mM MgCl2, 0.2 mM MnCl2 and 1 mg/mL BSA including 1 mM CaCl2 for αIIbβ3) to the wells in triplicate in the absence or presence of increasing concentrations of compounds of interest (0.001-100 uM) and further incubated for 2 hours at 37° C. Nonbound fibrinogen was removed by five washes with binding buffer. Avidin conjugated to alkaline phosphatase (Sigma), diluted in binding buffer, was added and incubated for two hours at 37° C. The plates were washed five times with binding buffer, and after addition of the substrate PNPP (Pierce), the enzyme activity was measured by the absorbance at 405 nm.

GP IIb-IIIa (αIIbβ3) = molecular target: T2, GP IIb-IIIa (αIIbβ3) (Homo sapiens, UniProt P05106+P08514); test: Fibrinogen binding to immobilized GP IIb-IIIa (αIIbβ3)
T2 construct: purchased Calbiochem
Method: as §2

HT29 = test: Cell proliferation and cytotoxicity MTT assay, HT29; assay type: cell-based; conditions: Homo sapiens, HT-29, 72 hours culture
Method: as §1

αvβ5 = molecular target: T3, αvβ5 (Homo sapiens, UniProt P06756+P18084); test: Cell adhesion assay, HT29 on vitronectin; assay type: cell-based
T3 construct: Cells HT29, K562, or K562 transfected with αvβ3; endogenous in cells; host or cells: HT29
T3 sequence (P06756 31-889 limits assumed): as the sequence (P06756 31-889 limits assumed) above
T3 sequence (P06756 891-1048 partner limits assumed): as the sequence (P06756 891-1048 partner limits assumed) above
T3 sequence (P18084 24-799): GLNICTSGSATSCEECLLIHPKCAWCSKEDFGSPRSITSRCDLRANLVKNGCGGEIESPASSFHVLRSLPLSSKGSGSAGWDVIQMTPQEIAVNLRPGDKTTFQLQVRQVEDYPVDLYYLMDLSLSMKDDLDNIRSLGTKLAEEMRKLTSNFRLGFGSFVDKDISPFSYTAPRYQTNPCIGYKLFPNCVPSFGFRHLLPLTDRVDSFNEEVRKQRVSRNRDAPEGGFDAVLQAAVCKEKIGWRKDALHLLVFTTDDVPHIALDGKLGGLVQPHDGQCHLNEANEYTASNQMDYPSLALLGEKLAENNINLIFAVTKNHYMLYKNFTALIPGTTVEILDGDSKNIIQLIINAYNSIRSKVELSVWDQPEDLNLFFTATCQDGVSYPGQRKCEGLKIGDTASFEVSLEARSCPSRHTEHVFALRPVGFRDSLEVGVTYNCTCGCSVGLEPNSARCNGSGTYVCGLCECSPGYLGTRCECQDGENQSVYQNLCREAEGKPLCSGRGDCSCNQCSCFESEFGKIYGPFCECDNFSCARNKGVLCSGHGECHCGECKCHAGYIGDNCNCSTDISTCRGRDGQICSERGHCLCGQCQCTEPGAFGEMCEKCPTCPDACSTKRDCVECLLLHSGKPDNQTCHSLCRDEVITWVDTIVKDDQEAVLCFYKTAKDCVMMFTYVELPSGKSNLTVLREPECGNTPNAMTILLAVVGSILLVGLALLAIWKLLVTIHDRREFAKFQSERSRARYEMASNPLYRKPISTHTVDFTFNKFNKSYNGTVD
Method: (§3) The wells of 96-well plates (Immunolon) were coated, by incubation overnight at 4° C., with 5 ug/mL vitronectin, 2 ug/mL osteopontin, or fibronectin or 10 mg/mL BSA in PBS. The protein solution was flicked out and the wells were blocked with 10 mg/mL BSA (0.1 mL) for 1-2 hours at 37° C. […] Cells were lifted with trypsin-EDTA and washed two times with Hank's balanced salt solution minus cations (Sigma) supplemented with 1 mM MgCl2 Cells (75,000 cells/well) were added to coated plates in triplicate and allowed to attach at 37° C. for 1 hour in the presence or absence of specific antibodies (5 ug/mL) or 10-fold dilutions of compounds of interest starting at 10 uM. Nonadherent cells were removed by gentle washing twice with PBS. The adherent cells were solubilized with 1% triton x-100 and detected using a fluorescence plate reader (DYNEX Technologies). The number of attached cells was calculated based upon standard curves for each cell line used in the experiment.

α5β1 = molecular target: T4, α5β1 (Homo sapiens, UniProt P05556+P08648); test: Cell adhesion assay, K562 on fibronectin; assay type: cell-based; conditions: K562 cells, adhesion to fibronectin, 1 hour
T4 construct: Cells HT29, K562, or K562 transfected with αvβ3; endogenous in cells; host or cells: K562
T4 sequence (P08648 42-894 limits assumed): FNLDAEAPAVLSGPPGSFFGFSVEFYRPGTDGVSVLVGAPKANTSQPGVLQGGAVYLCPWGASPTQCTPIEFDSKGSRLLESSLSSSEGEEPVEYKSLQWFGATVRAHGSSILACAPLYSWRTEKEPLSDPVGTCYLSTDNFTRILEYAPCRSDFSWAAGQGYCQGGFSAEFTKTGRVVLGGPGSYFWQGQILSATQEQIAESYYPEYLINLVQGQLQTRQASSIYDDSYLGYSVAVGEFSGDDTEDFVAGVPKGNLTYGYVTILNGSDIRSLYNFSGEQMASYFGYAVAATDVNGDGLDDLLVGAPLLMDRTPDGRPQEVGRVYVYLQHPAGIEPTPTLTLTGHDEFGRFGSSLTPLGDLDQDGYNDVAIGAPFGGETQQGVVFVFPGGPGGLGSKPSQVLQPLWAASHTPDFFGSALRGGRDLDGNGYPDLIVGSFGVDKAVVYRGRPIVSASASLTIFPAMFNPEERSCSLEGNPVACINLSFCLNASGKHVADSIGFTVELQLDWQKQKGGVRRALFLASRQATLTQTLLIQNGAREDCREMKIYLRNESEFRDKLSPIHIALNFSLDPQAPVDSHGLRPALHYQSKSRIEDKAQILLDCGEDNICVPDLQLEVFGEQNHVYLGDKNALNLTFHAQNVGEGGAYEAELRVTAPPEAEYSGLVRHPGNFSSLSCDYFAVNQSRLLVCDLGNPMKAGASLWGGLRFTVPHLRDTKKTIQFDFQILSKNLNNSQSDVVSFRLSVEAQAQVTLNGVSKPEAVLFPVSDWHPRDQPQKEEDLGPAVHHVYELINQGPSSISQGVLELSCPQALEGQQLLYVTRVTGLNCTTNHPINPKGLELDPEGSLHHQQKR
T4 sequence (P08648 895-1049 partner limits assumed): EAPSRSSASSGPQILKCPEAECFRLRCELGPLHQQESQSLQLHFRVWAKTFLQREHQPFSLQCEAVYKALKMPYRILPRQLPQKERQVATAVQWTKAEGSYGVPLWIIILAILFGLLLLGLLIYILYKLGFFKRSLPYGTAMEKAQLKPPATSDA
T4 sequence (P05556 21-798): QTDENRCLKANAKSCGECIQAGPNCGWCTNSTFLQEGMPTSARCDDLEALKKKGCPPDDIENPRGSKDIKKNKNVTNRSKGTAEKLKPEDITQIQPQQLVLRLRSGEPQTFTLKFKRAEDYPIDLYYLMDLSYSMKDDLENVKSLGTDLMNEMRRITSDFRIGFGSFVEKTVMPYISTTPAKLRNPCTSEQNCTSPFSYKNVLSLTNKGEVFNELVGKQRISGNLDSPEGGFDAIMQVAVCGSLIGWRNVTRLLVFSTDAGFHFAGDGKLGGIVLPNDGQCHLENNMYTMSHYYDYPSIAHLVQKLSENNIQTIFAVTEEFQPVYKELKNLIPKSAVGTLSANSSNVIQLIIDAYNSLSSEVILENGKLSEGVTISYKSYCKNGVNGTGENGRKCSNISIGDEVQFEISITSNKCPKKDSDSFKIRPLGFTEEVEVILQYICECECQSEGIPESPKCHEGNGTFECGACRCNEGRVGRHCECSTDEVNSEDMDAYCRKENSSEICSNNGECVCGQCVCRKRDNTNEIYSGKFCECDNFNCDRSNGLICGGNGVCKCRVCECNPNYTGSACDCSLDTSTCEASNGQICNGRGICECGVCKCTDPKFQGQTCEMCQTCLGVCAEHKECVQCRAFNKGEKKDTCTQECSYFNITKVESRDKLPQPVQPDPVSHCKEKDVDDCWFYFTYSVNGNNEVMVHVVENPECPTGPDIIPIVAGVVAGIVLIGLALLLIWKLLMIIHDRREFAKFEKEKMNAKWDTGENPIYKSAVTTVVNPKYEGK
Method: The wells of 96-well plates (Immunolon) were coated, by incubation overnight at 4° C., with 5 ug/mL vitronectin, 2 ug/mL osteopontin, or fibronectin or 10 mg/mL BSA in PBS. The protein solution was flicked out and the wells were blocked with 10 mg/mL BSA (0.1 mL) for 1-2 hours at 37° C. Cells HT29, K562, or K562 transfected with αvβ3 (Blystone et al., 1994) were loaded with a fluorescent marker, 5-chloromethylfluorescein diacetate (Molecular Probes, Eugene, Oreg.) for 1 hour at 37° C., then incubated in fresh medium without the fluorescent marker for 1 hour. Cells were lifted with trypsin-EDTA and washed two times with Hank's balanced salt solution minus cations (Sigma) supplemented with 1 mM MgCl2 Cells (75,000 cells/well) were added to coated plates in triplicate and allowed to attach at 37° C. for 1 hour in the presence or absence of specific antibodies (5 ug/mL) or 10-fold dilutions of compounds of interest starting at 10 uM. Nonadherent cells were removed by gentle washing twice with PBS. The adherent cells were solubilized with 1% triton x-100 and detected using a fluorescence plate reader (DYNEX Technologies). The number of attached cells was calculated based upon standard curves for each cell line used in the experiment. Non-specific cell attachment (attachment to wells coated with BSA) was always less than 5%.

αvβ3 = molecular target: T5, αvβ3 (Homo sapiens, UniProt P05106+P06756); test: Cell adhesion assay, K562-tr on osteopontin; assay type: cell-based
T5 construct: expressed in transfected cells; host or cells: K562
T5 sequence (P06756 31-889 limits assumed): as the sequence (P06756 31-889 limits assumed) above
T5 sequence (P06756 891-1048 partner limits assumed): as the sequence (P06756 891-1048 partner limits assumed) above
T5 sequence (P05106 27-788): as the sequence (P05106 27-788) above
Method: as §3

[3] = K562 transfected with αvβ3, adhesion to osteopontin, 1 hour, read-out: IC50 K562-tr Osteopontin (αvβ3)

CO[C@@H]1[C@H](OC(=O)NC(=O)CCl)CC[C@]2(CO2)[C@H]1[C@@]1(C)O[C@@H]1CC=C(C)C [AGM-1470, chloroacetyl-(3R,4S,5S,6R)-5-methoxy-4-[(2R,3R)-2-methyl-3-(3-methyl-2-butenyl)oxiranyl]-1-oxaspiro[2.5]oct-6-yl ester carbamic acid, reference compound]
Incidence of lung metastasis [1]: 3/10
Incidence of lymph node metastasis [1]: 1/10

N=C(N)NCCCNC(=O)c1ccc(C(=O)NC(CC(=O)O)c2ccccc2)s1 (stereo not shown) [Compound VIII, 3-{[5-(3-guanidino-propylcarbamoyl)-thiophene-2-carbonyl]-amino}-3-phenyl-propionic acid]
% of inhibition at 33 μg/mesh in the presence of VEGF [2]: 36%
IC50 (HMVEC): > 10 µM
IC50 (placental αvβ3; biotinylated-fibrinogen (10 nM) binding to immobilized αvβ3, read-out: IC50 αvβ3): 3.2 µM
IC50 (GP IIb-IIIa (αIIbβ3); biotinylated-fibrinogen (10 nM) binding to immobilized αIIbβ3, read-out: IC50 αIIbβ3): 5.9 µM
IC50 (HT29): > 10 µM

NCCNC(=O)c1ccc(C(=O)NC[C@H](NS(=O)(=O)c2ccccc2)C(=O)O)s1 [Compound X, (2S)2-Benzenesulfonylamino-3-[5-(2-amino-ethylcarbamoyl)-thiophen-2-carbonyl]-amino propionic acid trifluoroacetic acid salt]
IC50 (αvβ5; HT29 cells, adhesion to vitronectin, 1 hour, read-out: IC50 HT29 Vitronectin (αvβ5)): > 10 µM
IC50 (α5β1): > 10 µM
IC50 (αvβ3; [3]): > 10 µM

N=C(N)NNC(=O)c1ccc(C(=O)NC[C@H](NS(=O)(=O)c2ccccc2)C(=O)O)s1.O=C(O)C(F)(F)F [Compound XIX, 2S-Benzenesulfonylamino-3-[(5-guanidino-aminocarbonyl-thiophene-2-carbonyl)-amino]-3-propionic acid trifluoroacetate]
% of inhibition at 33 μg/mesh in the presence of VEGF [2]: 8%
IC50 (α5β1): > 10 µM
IC50 (αvβ3; [3]): 1.3 µM

NNC(=O)c1ccc(C(=O)NC[C@H](NS(=O)(=O)c2ccccc2)C(=O)O)s1.O=C(O)C(F)(F)F [Compound XVIII, 2S-Benzenesulfonylamino-3-[(5-hydrazinocarbonyl-thiophene-2-carbonyl)-amino]-3-propionic acid trifluoroacetate]
% of inhibition at 33 μg/mesh in the presence of VEGF [2]: 20%

Cl.N=C(N)NCCNC(=O)c1ccc(C(=O)NC[C@H](NS(=O)(=O)c2ccccc2)C(=O)O)o1 [Compound XXI, hydrochloride]
IC50 (αvβ5): 5.4 µM
IC50 (HMVEC): 8.9 µM
IC50 (α5β1): > 10 µM
IC50 (αvβ3): 2.3 µM
IC50 (placental αvβ3): 0.045 µM
IC50 (GP IIb-IIIa (αIIbβ3)): 0.931 µM
IC50 (HT29): > 10 µM

Cl.N=C(N)NCCNC(=O)c1ccc(C(=O)NC[C@H](NS(=O)(=O)c2ccccc2)C(=O)O)o1 [Compound XXI]
% of inhibition at 33 μg/mesh in the presence of VEGF [2]: 32%
